Read-outs that look alike come from different tables or passages of the source.
How the values were obtained:
[1] = molecular target: recombinant human wild type Cyp18 (Cyp18 wt) (Homo sapiens, UniProt P62937); test: biochemical
Description: The determination was performed on a UV/Vis spectrometer at 10° C. cuvette temperature, whereby the device is operated at 390 nm in kinetic-mode (measurement buffer: 35 mM HEPES/NaOH pH 7.8 (AppliChem A1069)). 0.58 nM recombinant human wild type Cyp18 (Cyp18 wt), 2.33 nM bovine serum albumin (BSA) and 1 mg/ml chymotrypsin (Merck) solved in 35 mM HEPES/NaOH pH 7.8 as well as different concentration of each test substance, where appropriate, were in the cuvette. The reaction was started with a stock solution of Suc-Ala-Ala-Pro-Phe-4-nitroanilide (Bachem, 10 mg/ml DMSO) as substrate so that a final substrate concentration of 32 μM resulted. The extinction-time-curves were evaluated after expiry of the fast phase of the reaction i.e. after approximately 60 seconds according to a rate equation of a first-order reaction.

NFAT = test: Cellular NFAT-reporter-gene assay (GloResponse NFAT-RE-luc2P HEK293); format: cell-based; conditions: Homo sapiens, read-out: NFAT-reporter-gene assay IC50
Description: An antigen specific stimulation of the T-cell receptor causes the activation of transcription factors such as e.g. NFAT (nuclear factor of activated T cells). NFAT-activation is essential for the expression of interleukine-2 and therefore, for the proliferation of T-cells as part of the immune response. A stable NFAT-reporter-gene cell line enables the analysis of modulators of the NFAT-pathways and thus, the evaluation of the immunosuppressive effects of compounds.
The stably transfected reporter-gene cell line GloResponse NFAT-RE-luc2P HEK293 (promega Corp. USA) was cultivated in DMEM (10% FCS; 2 mM Glutamin; 200 μg/ml Hygromycin) and seeded on 96-well plates (200.000 cells/well). The compounds to be tested were either added to the cells in a 2-point-determination (5 μM and 10 μM) or an ICH-determination (concentration series 4.1 nM-1 μM). […] Immediately thereafter the cells were stimulated with 5 nM PMA and 2 μM ionomycin and incubated over 16 h (37° C.; cell incubator). This double stimulation simulates a T-cell receptor stimulation and causes a NFAT activation with subsequently expression of the luciferase-reporter-gene. The amount of luciferase was quantitatively determined after 16 h by measurement of the bioluminescence by Bright-Glo Luciferase-Assay-System (Promega Corp., USA). The averaged luciferase values of the vehicle treated (1% DMSO) and with PMA/ionomycin stimulated cells were used as positive control and reference value.

calcineurin = calcineurin (Homo sapiens, UniProt P62937+P63098+Q08209); test: Inhibition of the phosphatase activity of calcineurin (scintillation-proximity-assay, in presence of Cyp18);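 note: calcineurin dephosphorylation of a ³³P-labelled RII phosphopeptide, captured on streptavidin-coated wells and read by scintillation counting, with uninhibited enzyme activity taken as 100%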

recombinant human wild type Cyp18 (Cyp18 wt), sequence (P62937 whole entry): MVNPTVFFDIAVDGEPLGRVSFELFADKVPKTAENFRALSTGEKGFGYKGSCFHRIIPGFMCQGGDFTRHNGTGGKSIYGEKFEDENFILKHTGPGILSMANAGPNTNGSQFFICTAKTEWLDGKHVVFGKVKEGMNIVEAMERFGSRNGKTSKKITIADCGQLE

Row | SMILES | IC50 [1] [µM] | IC50 (NFAT; HEK293, 16 h) [µM] | IC50 (calcineurin) [µM] | IC50 (NFAT; HEK293 reporter cells stimulated with 5 nM PMA and 2 μM ionomycin, 16 h) [µM]
1 | CCOC(=O)c1ccc2[nH]c(C[C@@H](C)[C@@H](O)[C@H]3C(=O)N[C@@H](CC)C(=O)N(C)CC(=O)N(C)[C@@H](CC(C)C)C(=O)N[C@@H](C(C)C)C(=O)N(C)[C@@H](CC(C)C)C(=O)N[C@@H](C)C(=O)N[C@H](C)C(=O)N(C)[C@@H](CC(C)C)C(=O)N(C)[C@@H](CC(C)C)C(=O)N(C)[C@@H](C(C)C)C(=O)N3C)nc2c1 [Compound 9] | 0.0139 | > 10 | 7 | –
2 | CCC(CC)COC(=O)c1ccc2[nH]c(C[C@@H](C)[C@@H](O)[C@H]3C(=O)N[C@@H](CC)C(=O)N(C)CC(=O)N(C)[C@@H](CC(C)C)C(=O)N[C@@H](C(C)C)C(=O)N(C)[C@@H](CC(C)C)C(=O)N[C@@H](C)C(=O)N[C@H](C)C(=O)N(C)[C@@H](CC(C)C)C(=O)N(C)[C@@H](CC(C)C)C(=O)N(C)[C@@H](C(C)C)C(=O)N3C)nc2c1 [Compound 10] | 0.0115 | > 10 | 6.9 | –
3 | CCCCOC(=O)c1ccc2[nH]c(C[C@@H](C)[C@@H](O)[C@H]3C(=O)N[C@@H](CC)C(=O)N(C)CC(=O)N(C)[C@@H](CC(C)C)C(=O)N[C@@H](C(C)C)C(=O)N(C)[C@@H](CC(C)C)C(=O)N[C@@H](C)C(=O)N[C@H](C)C(=O)N(C)[C@@H](CC(C)C)C(=O)N(C)[C@@H](CC(C)C)C(=O)N(C)[C@@H](C(C)C)C(=O)N3C)nc2c1 [Compound 11] | – | 10 | – | –
4 | CC[C@@H]1NC(=O)[C@H]([C@H](O)[C@H](C)Cc2nc3cc(C(=O)NC(CCC(=O)O)C(=O)NC(CCC(=O)O)C(=O)O)ccc3[nH]2)N(C)C(=O)[C@H](C(C)C)N(C)C(=O)[C@H](CC(C)C)N(C)C(=O)[C@H](CC(C)C)N(C)C(=O)[C@@H](C)NC(=O)[C@H](C)NC(=O)[C@H](CC(C)C)N(C)C(=O)[C@H](C(C)C)NC(=O)[C@H](CC(C)C)N(C)C(=O)CN(C)C1=O (some centres unmarked) [Compound 13] | 0.0111 | > 10 | > 10 | –
5 | CC[C@@H]1NC(=O)[C@H]([C@H](O)[C@H](C)Cc2nc3cc(/C=C/C(=O)O)ccc3[nH]2)N(C)C(=O)[C@H](C(C)C)N(C)C(=O)[C@H](CC(C)C)N(C)C(=O)[C@H](CC(C)C)N(C)C(=O)[C@@H](C)NC(=O)[C@H](C)NC(=O)[C@H](CC(C)C)N(C)C(=O)[C@H](C(C)C)NC(=O)[C@H](CC(C)C)N(C)C(=O)CN(C)C1=O [Compound 15] | 0.0048 | > 10 | > 10 | –
6 | CC[C@@H]1NC(=O)[C@H]([C@H](O)[C@H](C)Cc2nc3ncnc(O)c3[nH]2)N(C)C(=O)[C@H](C(C)C)N(C)C(=O)[C@H](CC(C)C)N(C)C(=O)[C@H](CC(C)C)N(C)C(=O)[C@@H](C)NC(=O)[C@H](C)NC(=O)[C@H](CC(C)C)N(C)C(=O)[C@H](C(C)C)NC(=O)[C@H](CC(C)C)N(C)C(=O)CN(C)C1=O [Compound 18] | 0.0014 | > 10 | – | –
7 | CC[C@@H]1NC(=O)[C@H]([C@H](O)[C@H](C)Cc2nc3cc(C(=O)NN)ccc3[nH]2)N(C)C(=O)[C@H](C(C)C)N(C)C(=O)[C@H](CC(C)C)N(C)C(=O)[C@H](CC(C)C)N(C)C(=O)[C@@H](C)NC(=O)[C@H](C)NC(=O)[C@H](CC(C)C)N(C)C(=O)[C@H](C(C)C)NC(=O)[C@H](CC(C)C)N(C)C(=O)CN(C)C1=O [Compound 19] | 0.0054 | > 10 | 7 | –
8 | CC[C@@H]1NC(=O)[C@H]([C@H](O)[C@H](C)Cc2nc3c(F)c(F)cc(S(=O)(=O)O)c3[nH]2)N(C)C(=O)[C@H](C(C)C)N(C)C(=O)[C@H](CC(C)C)N(C)C(=O)[C@H](CC(C)C)N(C)C(=O)[C@@H](C)NC(=O)[C@H](C)NC(=O)[C@H](CC(C)C)N(C)C(=O)[C@H](C(C)C)NC(=O)[C@H](CC(C)C)N(C)C(=O)CN(C)C1=O [Compound 20] | 0.0067 | > 10 | > 10 | –
9 | CC[C@@H]1NC(=O)[C@H]([C@H](O)[C@H](C)Cc2nc3cc(F)cc(C(=O)O)c3[nH]2)N(C)C(=O)[C@H](C(C)C)N(C)C(=O)[C@H](CC(C)C)N(C)C(=O)[C@H](CC(C)C)N(C)C(=O)[C@@H](C)NC(=O)[C@H](C)NC(=O)[C@H](CC(C)C)N(C)C(=O)[C@H](C(C)C)NC(=O)[C@H](CC(C)C)N(C)C(=O)CN(C)C1=O [Compound 21] | 0.0222 | 5.3 | > 10 | –
10 | CC[C@@H]1NC(=O)[C@H]([C@H](O)[C@H](C)Cc2nc3nc(O)nc(O)c3[nH]2)N(C)C(=O)[C@H](C(C)C)N(C)C(=O)[C@H](CC(C)C)N(C)C(=O)[C@H](CC(C)C)N(C)C(=O)[C@@H](C)NC(=O)[C@H](C)NC(=O)[C@H](CC(C)C)N(C)C(=O)[C@H](C(C)C)NC(=O)[C@H](CC(C)C)N(C)C(=O)CN(C)C1=O [Compound 24] | 0.0062 | > 10 | > 10 | –
11 | CC[C@@H]1NC(=O)[C@H]([C@H](O)[C@H](C)Cc2nc3cc(C(=O)OC(C)C)ccc3[nH]2)N(C)C(=O)[C@H](C(C)C)N(C)C(=O)[C@H](CC(C)C)N(C)C(=O)[C@H](CC(C)C)N(C)C(=O)[C@@H](C)NC(=O)[C@H](C)NC(=O)[C@H](CC(C)C)N(C)C(=O)[C@H](C(C)C)NC(=O)[C@H](CC(C)C)N(C)C(=O)CN(C)C1=O [Compound 25] | – | 10 | – | –
12 | CC[C@@H]1NC(=O)[C@H]([C@H](O)[C@H](C)Cc2nc3ccc(C(=O)OC)c(C(=O)OC)c3[nH]2)N(C)C(=O)[C@H](C(C)C)N(C)C(=O)[C@H](CC(C)C)N(C)C(=O)[C@H](CC(C)C)N(C)C(=O)[C@@H](C)NC(=O)[C@H](C)NC(=O)[C@H](CC(C)C)N(C)C(=O)[C@H](C(C)C)NC(=O)[C@H](CC(C)C)N(C)C(=O)CN(C)C1=O [Compound 30] | 0.0291 | > 10 | – | –
13 | CC[C@@H]1NC(=O)[C@H]([C@H](O)[C@H](C)CC2=NCCN2)N(C)C(=O)[C@H](C(C)C)N(C)C(=O)[C@H](CC(C)C)N(C)C(=O)[C@H](CC(C)C)N(C)C(=O)[C@@H](C)NC(=O)[C@H](C)NC(=O)[C@H](CC(C)C)N(C)C(=O)[C@H](C(C)C)NC(=O)[C@H](CC(C)C)N(C)C(=O)CN(C)C1=O [Compound 42] | – | – | – | 10
14 | CC[C@@H]1NC(=O)[C@H]([C@H](O)[C@H](C)CC2=NC(C(=O)O)CO2)N(C)C(=O)[C@H](C(C)C)N(C)C(=O)[C@H](CC(C)C)N(C)C(=O)[C@H](CC(C)C)N(C)C(=O)[C@@H](C)NC(=O)[C@H](C)NC(=O)[C@H](CC(C)C)N(C)C(=O)[C@H](C(C)C)NC(=O)[C@H](CC(C)C)N(C)C(=O)CN(C)C1=O (some centres unmarked) [Compound 43] | 0.0453 | 5.3 | – | –
15 | CC[C@@H]1NC(=O)[C@H]([C@H](O)[C@H](C)Cc2nc3ccc4c(S(=O)(=O)O)cccc4c3[nH]2)N(C)C(=O)[C@H](C(C)C)N(C)C(=O)[C@H](CC(C)C)N(C)C(=O)[C@H](CC(C)C)N(C)C(=O)[C@@H](C)NC(=O)[C@H](C)NC(=O)[C@H](CC(C)C)N(C)C(=O)[C@H](C(C)C)NC(=O)[C@H](CC(C)C)N(C)C(=O)CN(C)C1=O [Compound 45] | – | > 10 | – | –
16 | CC[C@@H]1NC(=O)[C@H]([C@H](O)[C@H](C)Cc2nc3cccc(C(=O)O)c3n2C)N(C)C(=O)[C@H](C(C)C)N(C)C(=O)[C@H](CC(C)C)N(C)C(=O)[C@H](CC(C)C)N(C)C(=O)[C@@H](C)NC(=O)[C@H](C)NC(=O)[C@H](CC(C)C)N(C)C(=O)[C@H](C(C)C)NC(=O)[C@H](CC(C)C)N(C)C(=O)CN(C)C1=O [Compound 55] | 0.209 | – | > 10 | –
17 | CC[C@@H]1NC(=O)[C@H]([C@H](O)[C@H](C)Cc2nc3c(C(=O)O)cccc3n2C)N(C)C(=O)[C@H](C(C)C)N(C)C(=O)[C@H](CC(C)C)N(C)C(=O)[C@H](CC(C)C)N(C)C(=O)[C@@H](C)NC(=O)[C@H](C)NC(=O)[C@H](CC(C)C)N(C)C(=O)[C@H](C(C)C)NC(=O)[C@H](CC(C)C)N(C)C(=O)CN(C)C1=O [Compound 56] | > 1 | – | > 10 | –
18 | CC[C@@H]1NC(=O)[C@H]([C@H](O)[C@H](C)Cc2nc3cc(C(=O)Oc4ccccc4C(=O)O)ccc3[nH]2)N(C)C(=O)[C@H](C(C)C)N(C)C(=O)[C@H](CC(C)C)N(C)C(=O)[C@H](CC(C)C)N(C)C(=O)[C@@H](C)NC(=O)[C@H](C)NC(=O)[C@H](CC(C)C)N(C)C(=O)[C@H](C(C)C)NC(=O)[C@H](CC(C)C)N(C)C(=O)CN(C)C1=O [Compound 65] | 0.0202 | – | > 10 | –
19 | CC[C@@H]1NC(=O)[C@H]([C@H](O)[C@H](C)Cc2nc3cc(C(=O)NCCOCCOCCNC(=O)[C@@H]4C[C@H](C(=O)O)C[C@H](C(=O)O)C4)ccc3[nH]2)N(C)C(=O)[C@H](C(C)C)N(C)C(=O)[C@H](CC(C)C)N(C)C(=O)[C@H](CC(C)C)N(C)C(=O)[C@@H](C)NC(=O)[C@H](C)NC(=O)[C@H](CC(C)C)N(C)C(=O)[C@H](C(C)C)NC(=O)[C@H](CC(C)C)N(C)C(=O)CN(C)C1=O [Compound 67] | 0.0084 | – | > 10 | –
20 | CC[C@@H]1NC(=O)[C@H]([C@H](O)[C@H](C)Cc2nc3cc(C(=O)NCCOCCOCCNC(=O)CCC(=O)O)ccc3[nH]2)N(C)C(=O)[C@H](C(C)C)N(C)C(=O)[C@H](CC(C)C)N(C)C(=O)[C@H](CC(C)C)N(C)C(=O)[C@@H](C)NC(=O)[C@H](C)NC(=O)[C@H](CC(C)C)N(C)C(=O)[C@H](C(C)C)NC(=O)[C@H](CC(C)C)N(C)C(=O)CN(C)C1=O [Compound 68] | 0.0085 | – | > 10 | –

Source: patent publication US9453051B2, “Cyclosporin derivatives” (priority 2011, dated 2016)
